Laboratory results: EP4813989A1, “CRYSTAL, PHARMACEUTICAL COMPOSITION, PREPARATION METHOD THEREFOR, AND USE THEREOF” (TYK Medicines, Inc., priority 2023, dated 2025)

Key:
Assay type in all cases: physicochemical
[1] = Light exposure test, related substances by HPLC; conditions: for Impurity content RRT0.55 / Impurity content RRT0.66 / Impurity content RRT0.71 / Impurity content RRT0.94 / Impurity content RRT1.02 / Impurity content RRT1.06 / Impurity content RRT1.08 / Impurity content RRT1.15 / Total impurities: 4500lx±500lx, open
From the text: An investigation method for the light exposure test can be seen in Table 13 below.
Results of related substances in each crystal form under the light exposure condition (4500lx±500lx) can be seen in Table 17.
HPLC detection results of related substances under the light exposure condition can be seen as follows: Table 17

[2] = Flowability test (angle of repose)
Description: A flowability determination method was as follows: an angle of repose was determined by using a device composed of 2 to 3 funnels connected in series in a staggered manner, and drug powder was slowly and uniformly passed through the funnels onto a stationary base with a diameter d, so as to form a symmetric powder pile with a single layer of powder at the bottom. During the formation of the powder pile, a height of the funnels was maintained within 2-4 cm from a top of the powder pile, a height h of the cone was determined, and the angle of repose was calculated as tanθ=h/(d/2).

[3] = High-humidity test, related substances by HPLC; conditions: 90%RH±5%RH; for Impurity content RRT0.55 / Impurity content RRT0.66 / Impurity content RRT0.71 / Impurity content RRT0.94 / Impurity content RRT1.02 / Impurity content RRT1.06 / Impurity content RRT1.08 / Impurity content RRT1.15 / Total impurities: open
From the text: An investigation method for the high-humidity test can be seen in Table 12 below.
Results of related substances in each crystal form under the high-humidity condition (90%RH±5%RH) can be seen in Table 16.
HPLC detection results of related substances under the high-humidity condition can be seen as follows: Table 16

[4] = Dynamic vapor sorption (DVS) hygroscopicity
Description: Dynamic vapor sorption (DVS) was used to investigate hygroscopicities of an active pharmaceutical ingredient in different crystal forms.
Determination method: • instrument: dynamic vapor sorption analyzer; temperature: 25°C; protective gas and flow rate: N2, 200 mL/min; • dm/dt: 0.002%/min; RH range: 0%RH-100%RH; cycle: 1 full cycle.

[5] = Accelerated test, related substances by HPLC; conditions: 40°C±2°C, 75%RH±5%RH; for Impurity content RRT0.55 / Impurity content RRT0.66 / Impurity content RRT0.71 / Impurity content RRT0.94 / Impurity content RRT1.02 / Impurity content RRT1.06 / Impurity content RRT1.08 / Impurity content RRT1.15 / Total impurities: open
Description: An investigation method for the accelerated test can be seen in Table 14 below.
Change results of related substances in each crystal form under the accelerated condition (40°C±2°C, 75%RH±5%RH) can be seen in Table 18.
HPLC detection results of related substances under the accelerated condition can be seen as follows: Table 18

## C[C@@H](Nc1ccn2ncc(C3=NOC(C)(C)N3)c2n1)c1cc(F)cc(F)c1F [crystal form A]
[1]; 4500 lx±500 lx, 32 days
  Increase of impurity RRT0.66 content: 0.09%
  Increase of impurity RRT0.71 content: not increased
  Increase of impurity RRT1.02 content: not increased
  Increase of impurity RRT1.08 content: 0.09%
  Increase of total impurities: 0.13%
[1]; 0 day
  Impurity content RRT0.55: 0.03%
  Impurity content RRT0.66: 0.18%
  Impurity content RRT0.71: 0.15%
  Impurity content RRT0.94: 0.04%
  Impurity content RRT1.02: 0.28%
  Impurity content RRT1.06: 0.07%
  Impurity content RRT1.08: 0.16%
  Impurity content RRT1.15: 0.03%
  Total impurities: 0.95%
[1]; 5 days
  Impurity content RRT0.55: 0.03%
  Impurity content RRT0.66: 0.21%
  Impurity content RRT0.71: 0.14%
  Impurity content RRT0.94: 0.04%
  Impurity content RRT1.02: 0.30%
  Impurity content RRT1.06: 0.08%
  Impurity content RRT1.08: 0.20%
  Impurity content RRT1.15: 0.04%
  Total impurities: 1.03%
[1]; 11 days
  Impurity content RRT0.55: 0.03%
  Impurity content RRT0.66: 0.22%
  Impurity content RRT0.71: 0.15%
  Impurity content RRT0.94: 0.03%
  Impurity content RRT1.02: 0.31%
  Impurity content RRT1.06: 0.07%
  Impurity content RRT1.08: 0.22%
  Impurity content RRT1.15: 0.04%
  Total impurities: 1.08%
[1]; 32 days
  Impurity content RRT0.55: 0.03%
  Impurity content RRT0.66: 0.27%
  Impurity content RRT0.71: 0.10%
  Impurity content RRT0.94: 0.07%
  Impurity content RRT1.02: 0.28%
  Impurity content RRT1.06: 0.06%
  Impurity content RRT1.08: 0.25%
  Impurity content RRT1.15: 0.02%
  Total impurities: 1.08%
[2]
  angle of repose: approximately 32.7 °
[3]; 32 days
  Increase of impurity RRT1.02 content: no essential changes
  Increase of impurity RRT1.08 content: no essential change
  Increase of total impurities: 0.03%
  Impurity content RRT0.55: 0.03%
  Impurity content RRT0.66: 0.18%
  Impurity content RRT0.71: 0.16%
  Impurity content RRT0.94: 0.05%
  Impurity content RRT1.02: 0.26%
  Impurity content RRT1.06: 0.06%
  Impurity content RRT1.08: 0.18%
  Impurity content RRT1.15: 0.05%
  Total impurities: 0.98%
[3]; 0 day
  Impurity content RRT0.55: 0.03%
  Impurity content RRT0.66: 0.18%
  Impurity content RRT0.71: 0.15%
  Impurity content RRT0.94: 0.04%
  Impurity content RRT1.02: 0.28%
  Impurity content RRT1.06: 0.07%
  Impurity content RRT1.08: 0.16%
  Impurity content RRT1.15: 0.03%
  Total impurities: 0.95%
[3]; 5 days
  Impurity content RRT0.55: 0.03%
  Impurity content RRT0.66: 0.20%
  Impurity content RRT0.71: 0.16%
  Impurity content RRT0.94: 0.03%
  Impurity content RRT1.02: 0.31%
  Impurity content RRT1.06: 0.09%
  Impurity content RRT1.08: 0.21%
  Impurity content RRT1.15: 0.04%
  Total impurities: 1.07%
[3]; 11 days
  Impurity content RRT0.55: 0.03%
  Impurity content RRT0.66: 0.20%
  Impurity content RRT0.71: 0.16%
  Impurity content RRT0.94: 0.03%
  Impurity content RRT1.02: 0.30%
  Impurity content RRT1.06: 0.08%
  Impurity content RRT1.08: 0.21%
  Impurity content RRT1.15: 0.03%
  Total impurities: 1.05%
[4]
  Hygroscopicity (conclusion): did not have hygroscopicity under conventional conditions
[4]; at 0% humidity, 25°C
  DVS weight loss: 3-4%
[4]; humidity 90% or more
  DVS hygroscopicity: obvious hygroscopicity
[4]; humidity increased from 0% to 20%
  DVS weight gain: significant weight gain
[4]; humidity increased from 20% to 80%
  DVS hygroscopic weight gain: almost no hygroscopic weight gain
[5]; 32 days
  Increase of impurity RRT1.08 content: 0.04%
  Impurity content RRT0.55: 0.04%
  Impurity content RRT0.66: 0.20%
  Impurity content RRT0.71: 0.16%
  Impurity content RRT0.94: 0.04%
  Impurity content RRT1.02: 0.27%
  Impurity content RRT1.06: 0.07%
  Impurity content RRT1.08: 0.20%
  Impurity content RRT1.15: 0.06%
  Total impurities: 1.03%
[5]; 0 day
  Impurity content RRT0.55: 0.03%
  Impurity content RRT0.66: 0.18%
  Impurity content RRT0.71: 0.15%
  Impurity content RRT0.94: 0.04%
  Impurity content RRT1.02: 0.28%
  Impurity content RRT1.06: 0.07%
  Impurity content RRT1.08: 0.16%
  Impurity content RRT1.15: 0.03%
  Total impurities: 0.95%
[5]; 5 days
  Impurity content RRT0.55: 0.03%
  Impurity content RRT0.66: 0.20%
  Impurity content RRT0.71: 0.16%
  Impurity content RRT0.94: 0.04%
  Impurity content RRT1.02: 0.30%
  Impurity content RRT1.06: 0.08%
  Impurity content RRT1.08: 0.18%
  Impurity content RRT1.15: 0.03%
  Total impurities: 1.02%
[5]; 11 days
  Impurity content RRT0.55: 0.04%
  Impurity content RRT0.66: 0.20%
  Impurity content RRT0.71: 0.17%
  Impurity content RRT0.94: 0.03%
  Impurity content RRT1.02: 0.33%
  Impurity content RRT1.06: 0.09%
  Impurity content RRT1.08: 0.25%
  Impurity content RRT1.15: 0.04%
  Total impurities: 1.14%
